The values below come from US9101567B2, “Suppression of cancer growth and metastasis using nordihydroguaiaretic acid derivatives with 7-hydroxystaurosporine” (The Johns Hopkins University, priority 2010, dated 2015).

Data set [1] has as its system caspase-7. The data set can be described thus: Western blotting of caspase-7 cleavage in MCF-7 cells. It is filed as cell-based, human. To be noted: MCF-7, 17 hrs; M4N 80 μM, etoposide 20 μM, rapamycin 20 μM, UCN-01 5 μM. The method, then: (§1) The sample volumes were adjusted by the total protein amount. Protein assay was performed by Bio-Rad Protein Assay (Bio-Rad Laboratories, Inc. Hercules, Calif.). The samples were resolved by the standard SDS-polyacrylamide gel electrophoresis and transferred to nitrocellulose membrane (Amersham Biosciences, Bjorkgatan, Sweden). The membranes were blocked with skim milk, and incubated with primary antibodies at 4° C. overnight and then with secondary antibody conjugated with horse radish peroxidase at room temperature for 2 hrs. The signals were detected by western blot chemiluminescence reagent plus (New England Nuclear Life Science Products, Boston, Mass.).
(§2) The effect of the combination treatments on cell death and autophagy was examined in two cell lines other than LNCaP cells.

The test system of data set [2] is caspase-7. The data set can be described thus: Western blotting of caspase-7 cleavage in HepG2 cells. Format: cell-based, human. To be noted: HepG2, 17 hrs; M4N 80 μM, etoposide 20 μM, rapamycin 20 μM, UCN-01 5 μM. The method, then:
as §1, §2

In data set [3] the test system is HIF1α. The data set can be described thus: Western blotting of HIF1α in LNCaP cells under hypoxia. It is filed as cell-based, human. To be noted: M4N 80 μM. The text has this:
LNCaP human prostate cancer, DU145 human prostate cancer, PC3 human prostate cancer, MCF-7 human breast cancer, MDA-MB-231 human breast cancer, MDA-MB-468 human breast cancer, HT29 human colon cancer, K562 human myelogenous leukaemia, HepG2 human hepatoma, Hep3B human hepatoma, and LN229 human glioblastoma cancer cell lines were purchased from American Type Culture Collection (Manassas, Va.). OC24 human ascites ovarian cancer cell line was a generous gift from Dr. XXX (Johns Hopkins University, MD). LNCaP cell line was cultured in RPMI1640 medium supplemented with glucose (14 mM), pyruvate (1 mM), and fetal bovine serum (FBS) (10%). DU145 cell line was cultured in MEM supplemented with non-essential amino acids, glucose (21 mM), pyruvate (1 mM), and FBS (10%). PC3 cell line was cultured in F-12K medium supplemented with FBS (10%). MCF-7 cell line was cultured in DMEM supplemented with FBS (10%). OC24 cell line was cultured in RPMI1640 medium supplemented with FBS (10%) as suspension culture. MDA-MB-231 and 468 cell lines were cultured in Leibovitz's L15 medium supplemented with FBS (10%) under air. HT29 cell line was cultured in DMEM supplemented with glucose (25 mM) and FBS (10%). K562 cell line was cultured in RPMI1640 supplemented with FBS (10%). […] The signals were detected by western blot chemiluminescence reagent plus (New England Nuclear Life Science Products, Boston, Mass.). […]

Data set [4] relates to LC3B-II. Put plainly: Western blotting of LC3B-II (autophagy) in MCF-7 cells. Format: cell-based, human. To be noted: MCF-7, 15 hrs; M4N 80 μM. How it is done: as §1, with “Mass.). The effect of […] on autophagy was examined using the western blotting for LC3B-II in the presence of Baflomycin A1 in MCF-7 and HepG2 cells (FIG. 4D).” for “Mass.).”
Data set [5] concerns LNCaP tumors. Put plainly: Nude mice orthotopically implanted with LNCaP tumors: life-span and lung metastasis. To be noted: LNCaP tumor-bearing nude mice; lung sections, hematoxylin and eosin. It is filed as in vivo, nude (nu/nu) mice.
Procedure: T-cell deficient male nude mice (nu/nu) were obtained from Charles River Laboratories (Wilmington, Mass.). […] For drug combinations (M4N/etoposide, M4N/rapamycin, and M4N/UCN-01), etoposide, rapamycin, or UCN-01 powder was further added to M4N in CPE 25/30 to make a final concentration of M4N (10 mg/ml) respectively with etoposide (4 mg/ml), rapamycin (3.75 mg/ml), or UCN-01 (884 g/ml) in CPE 25/30 formulation. These drugs were intravenously injected into the tail vein of mice at the daily dose of 0.1 ml per mouse. Therefore dosages of each injection were 1 mg/shot (for M4N), 0.4 mg/shot (for etoposide), 0.375 mg/shot (for rapamycin), and 88.4 μg/shot (for UCN-01). The drug injections were performed once every day; beginning at day 3 until day 31 after tumor inoculation for the combination treatment with either etoposide or rapamycin and until day 25 after tumor inoculation for the combination treatment with UCN-01. After this the drugs were injected once a week for etoposide/rapamycin combination treatment and once every three days until day 35 for UCN-01 combination treatment.
LNCaP cells growing subconfluently were collected into the tissue culture medium without fetal bovine serum and antibiotics. The cell concentration was adjusted by the same medium. […]
For data set [6] the following is noted: human patients (reference 10); cited from earlier work.

As to `CN[C@@H]1C[C@H]2O[C@@](C)([C@@H]1OC)n1c3ccccc3c3c4c(c5c6ccccc6n2c5c31)C(=O)N[C@H]4O` [UCN-01, 7-hydroxystaurosporine], in data set [1], the caspase-7 cleavage entry is listed as “detected”. In data set [2], the caspase-7 cleavage product entry is given as “great deal”.
Consider `COc1ccc(C[C@@H](C)[C@@H](C)Cc2ccc(OC)c(OC)c2)cc1OC` [M4N, Tetra-O-methyl nordihyroguaiaretic acid], for which the HIF1α expression result is “did not have much effect” in data set [3] (6 hr exposure to hypoxia) and “reduced HIF1α expression” in data set [3] (18 hr exposure to hypoxia). Further, the “autophagy (LC3B-II in the presence of Baflomycin A1)” value in data set [4] is “blocks autophagy”. Further, the “mice with obvious lung metastasis (histology)” value in data set [5] is listed as 2 out of 4. In data set [6], the “toxicity in clinical trials” value is “fairly nontoxic”.
